The source of these data is patent publication US20170112866A1, “ANTI-TUMOR AGENT CONTAINING TAXANE COMPOUND, AND ANTI-TUMOR EFFECT ENHANCER” (Taiho Pharmaceutical Company Limited, priority 2014, published 2017).

The nature of series [1]: Paclitaxel dose finding in SC-2-bearing mice (Reference Example 2). Particulars: doses 10, 20, 30 mg/kg/day on Days 1 and 8 tested.
Experimental: (§1) A human gastric cancer cell line (SC-2) was transplanted to the right chest of 5 to 6-week-old BALB/cA Jcl-nu mice. After the tumor transplantation, the long diameter (mm) and the short diameter (mm) of the tumor were measured, and the tumor volume (TV) was calculated. […] Paclitaxel was administered at doses of 10, 20, and 30 mg/kg/day on Days 1 and 8.
The conditions of series [2]: mouse, in vivo.
Experimental: as §1
In series [3] the test system is human gastric cancer cell line (SC-2). Briefly: Anti-tumor effect on SC-2 transplanted to nude mice (RTV, IR). It is filed as in vivo. To be noted: Day 29, tail vein, Day 1 and Day 8. As to the method:
The FTD•TPI combination drug (a mixture of FTD and TPI at a molar ratio of 1:0.5) was prepared for administration at a dose of 150 mg/kg/day in terms of FTD. Paclitaxel (TXL, Wako Pure Chemical Industries, Ltd.) was prepared for administration at doses of 5 and 20 mg/kg/day. The FTD•TPI combination drug was orally administered on Days 1 to 14 consecutively, and paclitaxel was administered through the tail vein on Day 1 and Day 8. In the combination administration groups, the doses and administration schedules of the FTD•TPI combination drug and paclitaxel were the same as those of the corresponding monotherapy groups.
As an index of the anti-tumor effect, the TVs on Days 3, 7, 12, 15, 19, 22, 26, and 29 were calculated in each group. In accordance with the following equation, the relative tumor volume (RTV) to that on Day 0 was calculated and compared with the RTV of the untreated group (control).
TV (mm^3)=(long diameter×short diameter^2)/2
RTV=(TV on Day 29)/(TV on Day 0)
The RTVs were plotted on the indicated measurement days, and RTV changes over days in the control group, the FTD•TPI combination drug administration group, the paclitaxel administration group, and the combination administration group of the FTD•TPI combination drug and paclitaxel were compared.
The tumor growth inhibition rate (IR) on Day 29 on the basis of RTV values was calculated in accordance with the following equation.
IR (%)=[1−(mean RTV value of treated group)/(mean RTV value of control group)]×100

Take `CC(=O)O[C@H]1C(=O)[C@@]2(C)[C@H]([C@H](OC(=O)c3ccccc3)[C@]3(O)C[C@H](OC(=O)[C@H](O)[C@@H](NC(=O)c4ccccc4)c4ccccc4)C(C)=C1C3(C)C)[C@]1(OC(C)=O)CO[C@@H]1C[C@@H]2O` [Paclitaxel (TXL), (−)-(1S,2S,3R,4S,5R,7S,8S,10R,13S)-4,10-diacetoxy-2-benzoyloxy-5,20-epoxy-1,7-dihydroxy-9-oxotax-11-en-13-yl(2R,3S)-3-benzoylamino-2-hydroxy-3-phenylpropionate]: the “recommended dose for mice” value in series [1] is reported as 20 mg/kg/day. For the same compound, the mice deceased entry in series [2] is listed as “four of the six mice deceased”. Moreover, in series [3] (paclitaxel 5 mg/kg/day), the “IR (tumor growth inhibition rate)” value is reported as 27.1% and the “RTV (mean ± SD)” value stood at 44.97 ± 1.78. Also, in series [3] (paclitaxel 20 mg/kg/day), the “IR (tumor growth inhibition rate)” value came out at 83.6% and the “RTV (mean ± SD)” value amounted to 10.13 ± 2.94.
